# Calls of active or inactive are those of the source. The rule behind the calls is not given here.
# Legend:
# HeLa [1] = assay: Cytotoxicity against human HeLa cells assessed as reduction in cell viability by MTT assay; assay type: functional, cell-based
# A549 = assay: Cytotoxicity against human A549 cells assessed as reduction in cell viability by MTT assay; assay type: functional, cell-based
# HepG2 = assay: Cytotoxicity against human HepG2 cells assessed as reduction in cell viability by MTT assay; assay type: functional, cell-based
# SMMC-7721 = assay: Cytotoxicity against human SMMC-7721 cells assessed as reduction in cell viability by MTT assay; assay type: functional, cell-based
# HeLa [2] = assay: Inhibition of colony formation in human HeLa cells assessed as reduction in cell colonies at 4 uM after 10 days by crystal violet staining based assay relative to control; assay type: functional; details: time 10.0 day, DDE = dose-dependent effect
# HeLa [3] = assay: Induction of apoptosis in human HeLa cells assessed as nuclear condensation at 1 to 10 uM after 24 hrs by Hoechst 33342 staining based fluorescence microscopic assay; assay type: functional, cell-based; details: dose 1-10 µM
# HeLa [4] = assay: Induction of apoptosis in human HeLa cells assessed as increase in early apoptotic cells at 1 to 10 uM after 24 hrs by Annexin V staining based flow cytometric analysis; assay type: functional, cell-based; details: dose 1-10 µM
# HeLa [5] = assay: Induction of apoptosis in human HeLa cells assessed as increase in late apoptotic cells at 1 to 10 uM after 24 hrs by Annexin V staining based flow cytometric analysis; assay type: functional, cell-based; details: dose 1-10 µM
# HeLa [6] = assay: Induction of cell cycle arrest in human HeLa cells assessed as accumulation at G2 phase at 1 to 5 uM after 24 hrs by Propidium iodide staining based flow cytometric analysis (reference value: 23%); assay type: functional; details: dose 1-5 µM
# HeLa [7] = assay: Induction of mitochondrial membrane potential loss in human HeLa cells at 1 to 10 uM after 24 hrs by JC1 staining based flow cytometric analysis; assay type: functional, cell-based; details: dose 1-10 µM
# HeLa [8] = assay: Induction of ROS generation in human HeLa cells at 1 to 10 uM after 24 hrs by DCFH-DA staining based fluorescence microscopic assay; assay type: functional, cell-based; details: dose 1-10 µM
# HeLa [9] = assay: Induction of apoptosis in human HeLa cells assessed as decrease in Bcl-2 protein expression at 1 to 10 uM after 24 hrs by Western blot analysis; assay type: functional, cell-based; details: dose 1-10 µM, DDE = dose-dependent effect
# HeLa [10] = assay: Induction of apoptosis in human HeLa cells assessed as increase in Bax protein expression at 1 to 10 uM after 24 hrs by Western blot analysis; assay type: functional, cell-based; details: dose 1-10 µM, DDE = dose-dependent effect
# HeLa [11] = assay: Induction of apoptosis in human HeLa cells assessed as increase in caspase 3 protein expression at 1 to 10 uM after 24 hrs by Western blot analysis; assay type: functional, cell-based; details: dose 1-10 µM, DDE = dose-dependent effect
# HeLa [12] = assay: Induction of apoptosis in human HeLa cells assessed as increase in cytochrome C protein expression at 1 to 10 uM after 24 hrs by Western blot analysis; assay type: functional, cell-based; details: dose 1-10 µM, DDE = dose-dependent effect
# HeLa [13] = assay: Induction of apoptosis in human HeLa cells assessed as increase in p53 protein expression at 1 to 10 uM after 24 hrs by Western blot analysis; assay type: functional, cell-based; details: dose 1-10 µM, DDE = dose-dependent effect
# HeLa [14] = assay: Induction of apoptosis in human HeLa cells assessed as increase in cleaved PARP protein expression at 1 to 10 uM after 24 hrs by Western blot analysis; assay type: functional, cell-based; details: dose 1-10 µM, DDE = dose-dependent effect
# HeLa [15] = assay: Activation of MAPK signalling pathway in human HeLa cells assessed as increase in JNK phosphorylation level at 1 to 10 uM after 24 hrs by western blot analysis; assay type: cell-based; details: filed as activator, dose 1-10 µM, DDE = dose-dependent effect
# HeLa [16] = assay: Activation of MAPK signalling pathway in human HeLa cells assessed as increase in ERK phosphorylation level at 1 to 10 uM after 24 hrs by western blot analysis; assay type: cell-based; details: filed as activator, dose 1-10 µM, DDE = dose-dependent effect
# HeLa [17] = assay: Activation of MAPK signalling pathway in human HeLa cells assessed as increase in p38 phosphorylation level at 1 to 10 uM after 24 hrs by western blot analysis; assay type: cell-based; details: filed as activator, dose 1-10 µM, DDE = dose-dependent effect
SMILES,IC50 (HeLa [1]) [µM],IC50 (A549) [µM],IC50 (HepG2) [µM],IC50 (SMMC-7721) [µM],other results
Cc1c(O)c(C)c2oc(=O)c3c(c2c1C)O[C@@]12C(=[N+]([O-])c4c1ccc1c4C=CC(C)(C)O1)C(C)(C)[C@@H]1C[C@]45CCCN4C(=O)[C@]1(NC5=O)[C@H]32,7.9,7.8,8.1,6.7,
CC1(C)C=Cc2c(ccc3c2N2O[C@@H]4O[C@@]2(C3=O)C(C)(C)C2C[C@]35CCCN3C(=O)C24NC5=O)O1 (some centres undefined),> 10,> 10,> 10,> 10,
CC(=O)O[C@H]1C(=O)[C@@]2(C)[C@H]([C@H](OC(=O)c3ccccc3)[C@]3(O)C[C@H](OC(=O)[C@H](O)[C@@H](NC(=O)c4ccccc4)c4ccccc4)C(C)=C1C3(C)C)[C@]1(OC(C)=O)CO[C@@H]1C[C@@H]2O [PACLITAXEL],0.05,0.05,0.06,0.07,
CC1(C)C=Cc2c(ccc3c4c(n(O)c23)C(C)(C)[C@@H]2C[C@]35CCCN3C(=O)[C@]23[C@H]4NC(C)(C)N3C5=O)O1,1.7,1.6,1.8,1.5,inhibition (HeLa [2]): Dde; Activity (HeLa [3]): Active; Activity (HeLa [4]): Active; Activity (HeLa [5]): Active; Activity (HeLa [6]): 38%; Activity (HeLa [7]): Active; Activity (HeLa [8]): Active; Activity (HeLa [9]): Dde; Activity (HeLa [10]): Dde; Activity (HeLa [11]): Dde; Activity (HeLa [12]): Dde; Activity (HeLa [13]): Dde; Activity (HeLa [14]): Dde; Activity (HeLa [15]): Dde; Activity (HeLa [16]): Dde; Activity (HeLa [17]): Dde
CC1(C)C=Cc2c(ccc3c2[N+]([O-])=C2C(C)(C)C4C[C@]56CCCN5C(=O)C4(NC6=O)[C@@H](O)[C@@]23O)O1 (some centres undefined),> 10,> 10,> 10,> 10,
CC1(C)C=Cc2c(ccc3c4c([nH]c23)C(C)(C)[C@@H]2C[C@]35CCCN3C(=O)[C@]23[C@H]4NC(C)(C)N3C5=O)O1,> 10,> 10,> 10,> 10,
Cc1c(O)c(C)c2oc(=O)c(C3=C4C(=[N+]([O-])c5c4ccc4c5C=CC(C)(C)O4)C(C)(C)[C@@H]4C[C@]56CCCN5C(=O)[C@]34NC6=O)c(O)c2c1C,> 10,> 10,> 10,> 10,
